Measured values published in patent US9944607B2, “Thiohydantoin derivatives and uses thereof” (Whitehead Institute for Biomedical Research, priority 2012, dated 2018).
pIC50: −log10 of the molar value.

Columns and labels:
Candida albicans CaCi-2 = assay: Primary assay: C. albicans CaCi-2 growth inhibition (Alamar Blue); type: cell-based
[1] = test system: NIH-3T3 mammalian fibroblasts; assay: Counterscreen mammalian cell toxicity assay (Alamar Blue); type: cell-based, murine; details: Mus musculus, NIH3T3, Tables 9, 10, 12; AID 602394; read-out: Murine 3T3 fibroblasts growth inhibition (fibroblast toxicity) IC50
Procedure, shortened: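 Quiescent NIH-3T3 fibroblasts, cultured overnight, exposed to 100 nL pinned compound for 48 h at 37° C, 5% CO2. Alamar Blue added to 1:200 final, 2-3 h further incubation; fluorescence (RFU) read as relative cell growth.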

[2] = Plasma stability, mouse plasma; type: in vitro ADME; details: 37° C., 5 μM
Experimental: (§1) Plasma stability was determined at 37° C. at 5 hours in both human and mouse plasma. Each compound was prepared in duplicate at 5 μM in plasma diluted 50/50 (v/v) with PBS pH 7.4 (0.95% acetonitrile, 0.05% DMSO). Compounds were incubated at 37° C. for 5 hours with a 250-rpm orbital shake with time points taken at 0 hours and 5 hours.

[3] = Plasma stability, human plasma; type: in vitro ADME; details: 37° C., 5 μM
Experimental: as §1

Candida albicans CaCi-17 = assay: Primary assay: C. albicans CaCi-17 growth inhibition (Alamar Blue); type: cell-based; details: Candida albicans, CACI17, Tables 9, 10, 12; AID 623897; read-out: C. albicans CaCi-17 growth inhibition IC50
[4] = Plasma protein binding by equilibrium dialysis, human plasma; type: in vitro ADME; details: pH 7.4, 37° C., read-out: Plasma protein binding (% bound), Human (converted)
Experimental: (§2) Plasma protein binding was determined by equilibrium dialysis using the Rapid Equilibrium Dialysis (RED) device (Pierce Biotechnology, Rockford, Ill.) for both human and mouse plasma. Each compound was prepared in duplicate at 5 μM in plasma (0.95% acetonitrile, 0.05% DMSO) and added to one side of the membrane (200 μL) with PBS pH 7.4 added to the other side (350 μL). Compounds were incubated at 37° C. for 5 hours with a 250-rpm orbital shake.

[5] = Plasma protein binding by equilibrium dialysis, mouse plasma; type: in vitro ADME; details: pH 7.4, murine plasma, 37° C., read-out: Plasma protein binding (% bound), Murine
Experimental: as §2

mitochondrial function = details: FIG. 1 legend, known inhibitors; cited from earlier work

Row | fraction unbound at 5 h, 5 μM [4] | fraction unbound at 5 h, 5 μM [5] | Compound | pIC50 (Candida albicans CaCi-2; Candida albicans, CACI2, Tables 9, 10, 12, AID 623899, read-out: C. albicans CaCi-2 growth inhibition IC50) | pIC50 [1] | Plasma stability (% remaining after 5 hours), Murine [2] | Plasma stability (% remaining after 5 hours), Human [3] | pIC50 (Candida albicans CaCi-17) | Activity against C. albicans (Candida albicans CaCi-2; CaCi-2, or both test strains (CaCi-2, CaCi-17) where the sentence names none) | Inhibition of mitochondrial function (in words) (mitochondrial function)
1 |  |  | CCOC(=O)N1C(=O)C2(CCCCC2)N(c2ccc(C)cc2)C1=S [CID 3889161] | 6.52 | < 4.59 | <1.0% | <1.0% | 5.07 |  | 
2 | 0.014 | 0.001 | Cc1ccc(N2C(=S)N(C)C(=O)C23CCCCC3)cc1 [CID 56604835] |  |  | 96.6% | 95.7% |  | no activity | 
3 |  |  | Antimycin |  |  |  |  |  |  | potent, but non-selective
